From ChEMBL document CHEMBL1144487 (Bioorg Med Chem, 2007) come the findings set out here.

Data set [1] in a line: Cytotoxicity against rat NRK 52E cells after 5 days. Format: cell-based. As to conditions: read-out: LC50.
A short description of data set [2]: Differential index, LC50 for rat NRK 52E cells to LC50 for mouse 3LL cells. The data set is classed as ADME, cell-based. The following applies: NRK 52E cells versus 3LL cells.
The nature of data set [3]: Differential index, LC50 for rat NRK 52E cells to LC50 for rat K-ras transformed NRK K/1 cells. As to conditions: NRK 52E cells versus K-ras transformed NRK K/1 cells. The data set is classed as ADME, cell-based.
Data set [4] can be described thus: Cytotoxicity against rat N-ras transformed NRK N/4.2 cells after 5 days. Format: cell-based. As to conditions: NRK N/4.2, 120 h, read-out: LC50 (the source's name).
Data set [5] in a line: Cytotoxicity against mouse 3LL cells after 5 days. The data set is classed as cell-based. As to conditions: 120 h, read-out: LC50 (the source's name).
Data set [6] in a line: Differential index, LC50 for rat NRK 52E cells to LC50 for rat N-ras transformed NRK N/4.2 cells. Format: ADME, cell-based. The following applies: NRK 52E cells versus N-ras transformed NRK N/4.2 cells.
Data set [7] is described as follows: Cytotoxicity against rat H-ras transformed NRK H/1.2 cells after 5 days. Format: cell-based. The following applies: NRK H/1.2, 120 h, read-out: LC50 (the source's name).
Data set [8] in a line: Toxicity in mouse. Format: organism-based. As to conditions: in vivo.
The nature of data set [9]: Cytotoxicity against rat K-ras transformed NRK K/1 cells after 5 days. Format: cell-based. The following applies: NRK K/1, 120 h, read-out: LC50 (the source's name).
The nature of data set [10]: Differential index, LC50 for rat NRK 52E cells to LC50 for rat H-ras transformed NRK H/1.2 cells. The data set is classed as ADME, cell-based. As to conditions: NRK 52E cells versus H-ras transformed NRK H/1.2 cells.
The test system of data set [11] is Mus musculus. Nature of the data set: Toxicity in nude mouse at 100 mg/kg/day after 7 days. The data set is classed as organism-based. The following applies: in vivo, 168 h.
Data set [12] relates to Mus musculus. Nature of the data set: Toxicity in nude mouse at 10 mg/kg/day after 7 days. The data set is classed as organism-based. As to conditions: in vivo, 168 h.
Data set [13] has as its system NRK. Nature of the data set: Inhibition of tumor growth in CD1 nu/nu mouse implanted with rat K-ras transformed NRK K/1 cells at 100 mg/kg/day, ip for 7 days on day 10 relative to control. Format: functional. The following applies: route intraperitoneal.
Data set [14] has as its system Mus musculus. Nature of the data set: Toxicity in nude mouse at 50 mg/kg/day after 7 days. As to conditions: in vivo, 168 h. Format: organism-based.
The test system of data set [15] is Mus musculus. In words: Toxicity in nude mouse at 300 mg/kg/day assessed as death after 8 days. Format: organism-based. The following applies: in vivo, 192 h.
The test system of data set [16] is Mus musculus. Nature of the data set: Toxicity in nude mouse at 150 mg/kg/day assessed as death after 8 days. The data set is classed as organism-based. As to conditions: in vivo, 192 h.
The subject of data set [17] is NRK. Nature of the data set: Inhibition of tumor growth in CD1 nu/nu mouse implanted with rat K-ras transformed NRK K/1 cells at 150 mg/kg/day, ip after 8 days relative to control. Format: functional. As to conditions: 192 h, route intraperitoneal.
In data set [18] the test system is NRK. Nature of the data set: Inhibition of tumor growth in CD1 nu/nu mouse implanted with rat K-ras transformed NRK K/1 cells at 300 mg/kg/day, ip after 8 days relative to control. The following applies: 192 h, route intraperitoneal. The data set is classed as functional.

In the case of `CC(=O)NC1=CC(=O)c2ccc(-c3[nH]c(C(N)=O)cc4c5ccccc5nc3-4)nc2C1=O`, the CC50 at 120 h in data set [1] worked out at 900 nM. For the same molecule, the figures for the selectivity ratio in [2], in data set [3] and in [6] were 4.3, 2.5 and 4.1, respectively. The CC50 came out at 220 nM in data set [4], 210 nM in [5], 230 nM in data set [7] and 350 nM in data set [9]. Moreover, the MTD in data set [8] came to 400 mg/kg.
For `CC(=O)NC1=CC(=O)c2ccc(-c3nc(C(=O)OCCN(C)C)cc4c3[nH]c3ccccc34)nc2C1=O`, the CC50 at 120 h in data set [1] was determined as 370 nM. Besides, the selectivity ratio in [2] was determined as 0.7; in [3], 2.6; in [10], 1.5; in [6], 1.3. In addition, the CC50 in data set [4] worked out at 290 nM; in [5], 500 nM; in [7], 240 nM; in data set [9], 140 nM.
As to `CCCC(=O)NC1=CC(=O)c2ccc(C)nc2C1=O`, the CC50 at 120 h in data set [1] was found to be 2000 nM. Moreover, the CC50 in data set [4] was above 3300 nM; in data set [5], 2500 nM; in data set [7] it was above 3300 nM; in data set [9], above 3300 nM. In data set [8], this molecule displayed an MTD below 10 mg/kg.
With `CC(=O)NC1=CC(=O)c2ccc(-c3nc(C(=O)OCCC(C)C)c(C)c4c3[nH]c3ccccc34)nc2C1=O`, the CC50 at 120 h in data set [1] worked out at 4160 nM. Moreover, the selectivity ratio was determined as 0.6 in data set [2], 0.9 in data set [3], 1.1 in data set [10] and 1.2 in [6]. Besides, the CC50 in data set [4] stood at 3890 nM; in data set [5] it was 7400 nM; in data set [7], 4300 nM; in [9], 5000 nM.
In the case of `CC(=O)NC1=CC(=O)c2ccc(C)nc2C1=O`, the CC50 at 120 h in [1] is 2400 nM. Further, the CC50 in data set [5] was determined as 2000 nM; in data set [7], 4400 nM; in [9], 5900 nM. Further, in data set [8], the MTD was below 10 mg/kg.
Consider `CCOC(=O)c1cc2c([nH]c3ccccc32)c(-c2ccc3c(n2)C(=O)C(NC(C)=O)=CC3=O)n1`, for which the CC50 at 120 h in [1] worked out at 300 nM. Besides, the selectivity ratio in data set [2] was found to be 0.1; in [3], 7.5; in [10], 0.8; in data set [6], 0.7. In addition, the CC50 turned out to be 200 nM in data set [4], 3200 nM in data set [5], 360 nM in [7] and 40 nM in [9].
In the case of `CC(=O)NC1=CC(=O)c2ccc(-c3nc(C(=O)OCCN(C)C)c(C)c4c3[nH]c3ccccc34)nc2C1=O`, in data set [1], the CC50 at 120 h was 90 nM. Further, the selectivity ratio in data set [2] amounted to 0.2; in data set [3], 1.5; in data set [10] it was 1; in [6] it was 1. The CC50 was found to be 90 nM in data set [4], 480 nM in data set [5], 90 nM in data set [7] and 60 nM in data set [9].
Take `CCCC(=O)NC1=CC(=O)c2ccc(C=O)nc2C1=O`: the CC50 at 120 h in [1] turned out to be 3000 nM. Moreover, the CC50 is above 3300 nM in [4], 2500 nM in data set [5], 3300 nM in [7] and above 3300 nM in [9]. In data set [8], this molecule showed an MTD below 10 mg/kg.
As for `COC(=O)c1[nH]c(-c2ccc3c(n2)C(=O)C(NC(C)=O)=CC3=O)c2nc3ccccc3c-2c1C`, the CC50 at 120 h in data set [1] was 900 nM. Moreover, the Activity entry in the data set on Mus musculus [11], with Mus musculus [12] and in the data set with Mus musculus [14] was “Non-toxic” in each case. In addition, the selectivity ratio in data set [2] was below 0.03; in data set [3], 9; in data set [10], 1.3. In addition, the values for the CC50 in data set [5], in data set [7] and in data set [9] were above 33000 nM, 700 nM and 100 nM, respectively. Besides, the inhibition in vivo at 100 mg/kg/day in the data set with NRK [13] was 69%.
`CC(=O)NC1=CC(=O)c2ccc(-c3nc(C(=O)OCCC(C)C)cc4c3[nH]c3ccccc34)nc2C1=O`: the CC50 at 120 h in data set [1] is 1620 nM. In addition, the Activity result in the data set with Mus musculus [15] and in the data set on Mus musculus [16] was “Non-toxic” in each case. Moreover, the selectivity ratio in data set [2] was found to be 1; in data set [3] it was 18; in data set [10], 1.1; in data set [6], 1.1. Further, the CC50 came out at 1500 nM in [4], 1690 nM in data set [5], 1420 nM in data set [7] and 90 nM in [9]. This molecule gave an inhibition in vivo at 150 mg/kg/day in the data set with NRK [17] of 88%.
As to `CC(=O)NC1=CC(=O)c2ccc(-c3nc(C(=O)OC4CCCCC4)cc4c3[nH]c3ccccc34)nc2C1=O`, the CC50 at 120 h in data set [1] was determined as 700 nM. The selectivity ratio in data set [2] is 0.7; in [3], 1.7; in [10] it was 1; in data set [6], 1. Moreover, the CC50 in data set [4] is 700 nM; in data set [5], 1000 nM; in [7], 690 nM; in [9], 400 nM.
Consider `CCCCOC(=O)c1cc2c([nH]c3ccc(OC)cc32)c(-c2ccc3c(n2)C(=O)C(NC(C)=O)=CC3=O)n1`, for which the CC50 at 120 h in data set [1] was determined as 2500 nM. Besides, the selectivity ratio was below 0.7 in data set [2], 1.1 in data set [3], 1.2 in data set [10] and 1.1 in data set [6]. The CC50 in data set [4] is 2200 nM; in [5], above 3300 nM; in [7] it was 2100 nM; in [9], 2200 nM.
Turning to `CCCCCCCCOC(=O)c1cc2c([nH]c3ccccc32)c(-c2ccc3c(n2)C(=O)C(NC(C)=O)=CC3=O)n1`, the CC50 at 120 h in data set [1] is above 33000 nM. In addition, the Activity result in the data set on Mus musculus [15] and with Mus musculus [16] was “Non-toxic” throughout. Moreover, in the data set on NRK [18], the inhibition in vivo at 300 mg/kg/day came to 78%. The selectivity ratio in data set [3] is above 132; in data set [10] it was above 4.3; in [6], 3.6. The CC50 in data set [4] was 9000 nM; in data set [5] it was above 33000 nM; in data set [7], 7600 nM; in data set [9] it was 250 nM.
In the case of `NC1=CC(=O)c2ccc(-c3[nH]ccc4c5ccccc5nc3-4)nc2C1=O` [DECARBOXYDEMETHYLLAVENDAMYCIN], the CC50 at 120 h in [1] amounted to 100 nM. In addition, the selectivity ratio was 0.4 in data set [2], 3.2 in data set [3], 0.9 in data set [10] and 1.6 in data set [6]. In addition, the CC50 in [4] was determined as 60 nM; in [5] it was 250 nM; in [7], 110 nM; in [9] it was 31 nM. Also, in data set [8], the MTD was 400 mg/kg.
In the case of `CCCCOC(=O)c1cc2c([nH]c3ccccc32)c(-c2ccc3c(n2)C(=O)C(NC(=O)CCC)=CC3=O)n1` [LAV12], the CC50 at 120 h in data set [1] is 660 nM. Further, the selectivity ratio was found to be 0.3 in [2], 1.3 in data set [3], 1.6 in data set [10] and 0.9 in data set [6]. Also, the CC50 in data set [4] came to 700 nM; in data set [5], 2300 nM; in [7], 400 nM; in [9] it was 500 nM.

What is called inhibition in vivo is how much of the control response was suppressed.
